Results reported in article PMC8958510 (Journal of Medicinal Chemistry, 2022).
Converted amounts (≈) assume the structure as drawn.

Tests used:
SH-SY5Y cells = experiment: Cytotoxicity in SH-SY5Y cells, propidium iodide stain; type: cell-based, human
Description: Cytotoxicity in SH-SY5Y cells. The cytotoxicity of the target compounds was evaluated in
Minimum Essential Medium / Ham’s-F12 (1:1, v/v) medium (Biowest), supplemented with
non-essential amino acids, 10% fetal bovine serum, 1 mM glutamine and 50 µg mL‒1
gentamycin (all reagents from Gibco, Thermo Fisher Scientific). For the experiments, cells
were seeded at 3 × 10^5 cells mL‒1 (100 µL per well) in 96-well plates (Nunc). After 24 h, the
test compounds were added concentrated from stock solutions in DMSO and culture medium
to triplicate wells to obtain the final different concentrations up to 100 µM in 0.1% DMSO.
Compounds were incubated for further 24 h. At termination, cytotoxicity was analyzed by the
propidium iodide (PI) fluorescence stain assay. All compounds were tested in three
independent experiments using different cell passages. The PI assay measures cell death. PI
enters into the cells with damaged membranes and greatly increases the fluorescence upon
binding to DNA. PI reagent (Molecular Probes) at the final concentration of 7.5 µg mL‒1 was
added to the cells and incubated for 1 h. The resulting fluorescence was measured by a Flx-
death induced by the compounds was calculated from to the fluorescence of treated cells (Ft)
relative to that of control cells (Fmin) and cells incubated with Triton X100 (Fmax) as the 0%
and 100% cell death, respectively [% = ((Ft-Fmin)/(Fmax-Fmin)) × 100]. All compounds
were tested in three independent experiments using different cell passages. LC50 values were
calculated for each experiment and the results are expressed as mean ± SD.

[1] = Microsomal stability, mouse liver microsomes; type: in vitro ADME
Description: (§1) Microsomal stability screen. The microsomal stability of the target compounds was
(§2) determined at the Innopharma Drug Screening and Pharmacogenomics Platform (Santiago de
(§3) Compostela, Spain). The human, rat and mice pooled microsomes, with a protein content of 20 mg mL‒1, were purchased from Tebu-Xenotech. The compounds were incubated in a 96-well microplate at 37 °C with the microsomes in 50 mM phosphate buffer (pH = 7.4) containing as cofactors 30 mM MgCl2, 10 mM NADP, 100 mM glucose-6-phosphate and 40
(§4) Samples (75 µL) were taken from each well at 0, 10, 20, 40 and 60 min and transferred to a microplate. 4 °C Acetonitrile (75 µL) and internal standard (rolipram) were then added for inactivating the microsomes, and water with 0.5% formic acid (30 µL) was subsequently added for improving the chromatographic conditions, keeping the mixtures at 4 °C. The plate was centrifuged at 46,000 g for 30 min at 15 °C and supernatants were taken and analyzed in a UPLC-MS/MS system (UPLC QSM Waters Acquity) using reverse phase Acquity UPLC® HSST3 1.7 μm (2.1 mm × 50 mm, Waters) as the stationary phase, 0.1% formic acid in water (A) / 0.1% formic acid in acetonitrile (B) as the mobile phase, a flow of 0.8 mL min‒1, and the
(§5) The metabolic stability of the compounds was calculated from the logarithm of the remaining compound at each of the time points studied.

[2] = Microsomal stability, rat liver microsomes; type: in vitro ADME
Description: as §1, §2, §3, §4, §5

SAMP8 mice = experiment: Novel object recognition test (NORT) in SAMP8 mice; type: in vivo, mouse; conditions: 2 mg kg^–1 day^–1 oral, 4 weeks, vs vehicle-treated
Excerpt: In Vivo Proof-of-Concept of the Dual sEH / AChE Inhibitor […] in SAMP8 Mice Animals and treatment. The senescence-accelerated mouse-prone 8 (SAMP8) is an accelerated aging model established through phenotypic selection from AKR/J mice by […]
abnormal APP and β-amyloid processing and tau pathology, among others. Likewise, SAMP8 […]
and oxidative stress markers are present at early ages and during adultness.15 In this work, 5-month-old male SAMP8 mice were used to perform behavioral and molecular analyses.
Animals were randomly divided into SAMP8 control (n=8) and SAMP8 treated with 12c […]
(n=8, 2 mg kg‒1 day‒1). The animals had free access to food and water and were kept under standard temperature conditions (22 ± 2 °C) and 12-h/12-h light/dark cycles (300 lux/0 lux).
Compound 12c was dissolved in 1.8% (2-hydroxypropyl)-β-cyclodextrin (Sigma-Aldrich, St.
Louis, MO) and administered through drinking water for 4 weeks (Figure S6 of the Supporting Information). Control groups received water plus 1.8% (2-hydroxypropyl)-β-cyclodextrin during the treatment period. […]
had been replaced by a novel one. The behavior was recorded, and the time that the mice spent exploring the new object (TN) and the old one (TO) were measured manually. […]
The discrimination index (DI) was calculated as (TN‒TO)/(TN+TO). […]

recombinant mouse sEH = molecular target: T1, recombinant mouse sEH (Mus musculus, UniProt P34914); conditions: read-out: msEH IC50, average of three replicates
T1 sequence (P34914 1-554): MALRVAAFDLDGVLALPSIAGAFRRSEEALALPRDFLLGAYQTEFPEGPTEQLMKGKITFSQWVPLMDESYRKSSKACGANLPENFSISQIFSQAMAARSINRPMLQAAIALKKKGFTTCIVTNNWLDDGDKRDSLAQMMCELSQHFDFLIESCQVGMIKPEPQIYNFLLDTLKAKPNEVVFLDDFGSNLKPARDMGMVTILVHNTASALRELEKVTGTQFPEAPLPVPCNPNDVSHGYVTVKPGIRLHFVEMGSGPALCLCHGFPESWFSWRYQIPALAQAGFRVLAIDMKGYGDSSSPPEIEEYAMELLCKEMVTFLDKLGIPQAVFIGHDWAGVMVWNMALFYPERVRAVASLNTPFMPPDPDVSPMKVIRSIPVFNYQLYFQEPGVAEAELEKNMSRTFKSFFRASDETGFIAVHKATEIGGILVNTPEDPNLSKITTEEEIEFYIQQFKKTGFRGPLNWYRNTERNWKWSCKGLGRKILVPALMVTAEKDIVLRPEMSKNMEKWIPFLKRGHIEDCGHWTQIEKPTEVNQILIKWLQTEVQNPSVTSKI
Description: Human and mouse soluble epoxide hydrolase inhibition assay. The inhibitory activity of
the target compounds toward human and mouse sEH was determined by a fluorescence-based
assay, using purified recombinant human or mouse sEH proteins and CMNPC as a fluorescent
substrate.6 The enzymes were incubated at 30 °C with the inhibitors ([I]final = 0.4-100,000
nM) for 5 min in 100 mM sodium phosphate buffer (200 µL, pH 7.4) containing 0.1 mg mL‒1
of BSA and 1% of DMSO. The substrate (CMNPC) was then added ([S]final = 5 µM). Activity
was assessed by measuring the appearance of the fluorescent 6-methoxynaphthaldehyde
(Molecular Devices). Results were obtained by regression analysis from a linear region of the
curve and are given as IC50 values, i.e., the concentration of the compound that reduces the
sEH activity by 50%. All measurements were performed in triplicate and the mean is

[3] = PAMPA-BBB assay for brain permeability
Description: PAMPA-BBB assay for brain permeability. The brain permeability (Pe) of the target
compounds was assessed by an in vitro parallel artificial membrane permeability assay for
blood‒brain barrier penetration (PAMPA-BBB assay),12 which uses a lipid extract of porcine
brain membrane as a BBB model. The assay was validated by comparing experimental and
reported Pe values of a set of fourteen commercial drugs (Table S2 of the Supporting
On the basis of this equation and the limits established by Di et al. for BBB
independent experiments, each performed in triplicate, were carried out for each compound.

[4] = Kinetic aqueous solubility screen (light scattering); conditions: 1% DMSO / 99% PBS
Description: Aqueous solubility screen. The kinetic aqueous solubility of the target compounds was
as §2
Compostela, Spain). Ten mM stock solutions of the tested compounds were serially diluted,
NEPHELOstar Plus reader (BMG LABTECH). The results were adjusted to a segmented
linear regression to obtain the maximum concentration in which the compounds were soluble.

For `O=C(Nc1ccc(OC(F)(F)F)cc1)NC1CCN(C(=O)CCCCNc2c3c(nc4cc(Cl)ccc24)CCCC3)CC1` [12c, 1-{1-{5-[(6-Chloro-1,2,3,4-tetrahydroacridin-9-yl)amino]pentanoyl}piperidin-4-yl}-3-[4-(trifluoromethoxy)phenyl]urea], the “toxicity to SH-SY5Y cells LD50” value (SH-SY5Y cells; propidium iodide staining after 24 h of incubation, mean ± SD) was greater than 100 µM, the “LD50 (SH-SY5Y)” value (SH-SY5Y cells; supplementary CSV) was > 100 ?M and the “amount of compound, mouse liver microsomes” value ([1]; after 10 min) was 38%. The “amount of compound, mouse liver microsomes” value ([1]; after 20 min) was 4%, the microsomal CLint at 1 h, 0.05 µM ([1]; mouse, liver microsomes (pooled), pH 7.4, 37 °C) was 155 µL/min/mg and the half-life at 1 h, 0.05 µM ([1]; mouse, liver microsomes (pooled), pH 7.4, 37 °C, read-out: t1/2, mouse microsomes) was 4 min. For the same compound, the remaining at 1 h, 0.05 µM ([1]; mouse, liver microsomes (pooled), pH 7.4, after 1 h of incubation at 37 °C, read-out: % remaining compound, mouse microsomes) was 2%, the “% compound remaining unaltered, rat microsomes” value (from here on “% compound remaining unaltered”) ([2]; after 10 min) was 100% and the “% compound remaining unaltered” value ([2]; after 20 min) was 79%. The “% compound remaining unaltered” value ([2]; after 40 min) was 50%, the microsomal CLint at 1 h, 0.05 µM ([2]; rat, liver microsomes (pooled), pH 7.4, 37 °C) was 26 µL/min/mg and the half-life at 1 h, 0.05 µM ([2]; rat, liver microsomes (pooled), pH 7.4, 37 °C, read-out: t1/2, rat microsomes) was 26 min. The remaining at 1 h, 0.05 µM ([2]; rat, liver microsomes (pooled), pH 7.4, after 1 h of incubation at 37 °C, read-out: % remaining compound, rat microsomes) was 21%, the “short-term working memory (NORT discrimination index)” value (SAMP8 mice; 2 h retention) was “significantly ameliorated” and the “long-term working memory (NORT discrimination index)” value (SAMP8 mice; 24 h retention) was “significantly ameliorated”. The IC50 (recombinant mouse sEH) was 22.5 nM, the BBB permeation class ([3]; PAMPA-BBB prediction) was “CNS+ (High permeation, CNS+: Pe > 5.2)” and the Papp ([3]; pig, PAMPA) was 8.4 ± 0.7 ×10⁻⁶ cm/s. For the same compound, the solubility at 2 h [4] was 7.5 µM (≈ 4.64 µg/mL).
